# Measured values as given in patent US11938137B2, “Lipid prodrugs of mycophenolic acid and uses thereof” (PureTech LYT, Inc., priority 2017, dated 2024).
# Assay: Lymphatic transport assay in mesenteric lymph-duct cannulated rats
# Assay type: in vivo, rat
# Details: as E2 but dose 1 mg/rat; class symbols
# Method: In order to assess the lymphatic transport of disclosed lipid prodrugs in rats, the mesenteric lymph ducts of the rats used in this study were cannulated to allow continual collection of mesenteric lymph. Lipid formulations containing the compound of interest were then administered to the animals, lymph was collected, and drug concentrations in the lymph samples were quantified.
# Lipid-based formulations of the compounds of the invention or control compounds were prepared as previously described (Trevaskis, N. L. et al., Pharmaceutical Research, 2005, 22(11), 1863-1870, WO 2016/023082, and WO 2017/041139, hereby incorporated by reference.
# In brief, either 1 or 2 mg of test prodrug, 40 mg oleic acid and 25 mg Tween 80 were mixed in a glass vial and incubated at 37° C. for 12-18 h to equilibrate. An aqueous phase consisting of 5.6 ml phosphate buffered saline (PBS, pH 7.4) was subsequently added to the lipid phase (MPA was dissolved in PBS for the preparation of MPA containing formulations) and the formulation emulsified by ultrasonication with a Misonix XL 2020 ultrasonic processor (Misonix, Farmingdale, NY, USA) equipped with a 3.2-mm microprobe tip running at 30% of the maximal amplitude of 240 μm and a frequency of 20 kHz for 2 min at room temperature. Doses for administering to more than one animal can be prepared in one batch by suitably increasing the quantities given above. Drug/prodrug concentrations in all formulations were verified using HPLC-MS.
# Male Sprague-Dawley (SD) rats were selected for the lymphatic transport studies. Rats (typically 240-320 g) were maintained on a standard diet and fasted overnight with free access to water prior to experiments.
# Anesthetized rats were placed on a heated pad at 37° C. and cannulas inserted into the duodenum (for formulation administration and rehydration), mesenteric lymph duct (for lymph collection), and carotid artery (in cases where blood collection was conducted). Post-surgery, rats were re-hydrated for 0.5 h via intraduodenal infusion of normal saline at 2.8 mL/h. The lipid formulations were infused into the duodenum at 2.8 mL/h for 2 h after which, normal saline was infused at 2.8 mL/h for the remainder of the experiment. Lymph was continuously collected for up to 8 h into pre-weighed Eppendorf tubes containing 10 μL of 1,000 IU/mL heparin. The collection tubes were changed hourly and lymph flow was measured gravimetrically. Aliquots of hourly lymph samples were stored at −20° C. prior to assay.
# Drug concentration in lymph is expressed as total drug and includes free drug and drug associated with different glycerides. Lymph samples are first treated with a lipase or other appropriate conditions to liberate free active agent prior to measurement of active agent levels in the lymph. Treatment with a lipase or other hydrolysis conditions liberates free active agent from any corresponding re-esterified glycerides. Porcine pancreatic lipase is appropriate for this purpose. Alternatively, hydrolysis with 0.5 M NaOH may be used. For MPA “phenol” prodrugs (i.e. prodrugs linked to the triglyceride at the aromatic —OH group of MPA), hydrolysis was performed with 0.5 M NaOH except for the lymph samples collected from 3 rats in the group of compound I-20 (MPA-O-C12α′βMe-TG), which were hydrolyzed by porcine pancreatic lipase.
# Transport of compounds into lymph during each hourly collection period was calculated from the product of the volume of lymph collected and the measured concentrations in lymph. For fluorescently-labelled compounds such as a BDP-conjugate, the concentrations of total compound may be measured by fluorescence spectroscopy without hydrolysis.
# The results of the lymphatic transport assays are summarized in Table 2, below, and FIGS. 1-19. Table 2 summarizes lymphatic transport of total MPA related compound (% of administered dose) following intraduodenal infusion to anaesthetised, mesenteric lymph-duct cannulated rats. […]
row,Structure (SMILES),"Cumulative lymphatic transport % dose (Mean ± SD, or Range if n = 2)"
1,"CCCCCCCCCCCCCCCC(=O)OCC(COC(=O)CCCCCCCCCCCCCCC)OC(=O)CCCCCCCCCCCOC(=O)CC/C(C)=C/Cc1c(O)c2c(c(C)c1OC)COC2=O [I-37, (E)-2-((12-((6-(4-hydroxy-6-methoxy-7-methyl-3-oxo-1,3-dihydroisobenzofuran-5-yl)-4-methylhex-4-enoyl)oxy)dodecanoyl)oxy)propane-1,3-diyl dipalmitate]",A (greater than 10% (>10%))
2,"CCCCCCCCCCCCCCCC(=O)OCC(COC(=O)CCCCCCCCCCCCCCC)OC(=O)CCCCCCCCCCCCCCCCCOC(=O)CC/C(C)=C/Cc1c(O)c2c(c(C)c1OC)COC2=O [I-38, (E)-2-((18-((6-(4-hydroxy-6-methoxy-7-methyl-3-oxo-1,3-dihydroisobenzofuran-5-yl)-4-methylhex-4-enoyl)oxy)octadecanoyl)oxy)propane-1,3-diyl dipalmitate]",B (between 1% and 10% (1%-10%))

# Same assay, conditions: total MPA related compound, intraduodenal infusion, anesthetised mesenteric lymph-duct cannulated rats; class symbols
row,Structure (SMILES),"Cumulative lymphatic transport % dose (Mean ± SD, or Range if n = 2)"
1,"CCCCCCCCCCCCCCCC(=O)OCC(COC(=O)CCCCCCCCCCCCCCC)OC(=O)CC(C)CCCCCCCCCOC(=O)CC/C(C)=C/Cc1c(O)c2c(c(C)c1OC)COC2=O (stereo not shown) [I-51, (E)-2-((12-((6-(4-hydroxy-6-methoxy-7-methyl-3-oxo-1,3-dihydroisobenzofuran-5-yl)-4-methylhex-4-enoyl)oxy)-3-methyldodecanoyl)oxy)propane-1,3-diyl dipalmitate]",A (greater than 10% (>10%))
2,"CCCCCCCCCCCCCCCC(=O)OCC(COC(=O)CCCCCCCCCCCCCCC)OC(=O)CC(C)CCCCCCCC(C)C(=O)OCOC(=O)Oc1c(C/C=C(\C)CCC(=O)OC)c(OC)c(C)c2c1C(=O)OC2 (stereo not shown) [I-21, (E)-12-(1,3-Bis(palmitoyloxy)propan-2-yl) 1-(((((6-methoxy-5-(6-methoxy-3-methyl-6-oxohex-2-en-1-yl)-7-methyl-3-oxo-1,3-dihydroisobenzofuran-4-yl)oxy)carbonyl)oxy)methyl) 2,10-dimethyldodecanedioate]",B (between 1% and 10% (1%-10%))
3,"CCCCCCCCCCCCCCCC(=O)OCC(COC(=O)CCCCCCCCCCCCCCC)OC(=O)CC(C)CCCCCCCC(C)C(=O)OCCCC(=O)Oc1c(C/C=C(\C)CCC(=O)OC)c(OC)c(C)c2c1C(=O)OC2 (stereo not shown) [I-62, (E)-12-(1,3-bis(palmitoyloxy)propan-2-yl) 1-(4-((6-methoxy-5-(6-methoxy-3-methyl-6-oxohex-2-en-1-yl)-7-methyl-3-oxo-1,3-dihydroisobenzofuran-4-yl)oxy)-4-oxobutyl) 2,10-dimethyldodecanedioate]",A (greater than 10% (>10%))
4,CCCCCCCCCCCCCCCC(=O)OCC(COP(=O)(O)OCC[N+](C)(C)C)OC(=O)CC/C(C)=C/Cc1c(O)c2c(c(C)c1OC)COC2=O (stereo not shown) [I-39],C (less than 1% and greater than 0.24% (<1% and >0.24%))
5,CCCCCCCCCCCCCCCC(=O)OCC(COC(=O)CCCCCCCCCCCCCCC)OC(=O)C(C)CCCCCCCCCC(=O)Oc1c(C/C=C(\C)CCC(=O)OC)c(OC)c(C)c2c1C(=O)OC2 (stereo not shown) [I-60],A (greater than 10% (>10%))
6,CCCCCCCCCCCCCCCC(=O)OCC(COC(=O)CCCCCCCCCCCCCCC)OC(=O)CCCCCCCCCC(=O)Oc1c(C/C=C(\C)CCC(=O)OC)c(OC)c(C)c2c1C(=O)OC2 [I-48],A (greater than 10% (>10%))
7,CCCCCCCCCCCCCCCC(=O)OCC(COC(=O)CCCCCCCCCCCCCCC)OC(=O)CCCCCCCCCCC(=O)Oc1cc(C)cc(C)c1C(C)(C)CC(=O)Oc1c(C/C=C(\C)CCC(=O)OC)c(OC)c(C)c2c1C(=O)OC2 [I-47],B (between 1% and 10% (1%-10%))
8,"CCCCCCCCCCCCCCCC(=O)OCC(COC(=O)CCCCCCCCCCCCCCC)OC(=O)CC(C)CCCCCCCCCCCC(=O)Oc1c(C/C=C(\C)CCC(=O)OC)c(OC)c(C)c2c1C(=O)OC2 (stereo not shown) [I-31, (E)-1-(1,3-bis(palmitoyloxy)propan-2-yl) 15-(6-methoxy-5-(6-methoxy-3-methyl-6-oxohex-2-en-1-yl)-7-methyl-3-oxo-1,3-dihydroisobenzofuran-4-yl) 3-methylpentadecanedioate]",A (greater than 10% (>10%))
9,"CCCCCCCCCCCCCCCC(=O)OCC(COC(=O)CCCCCCCCCCCCCCC)OC(=O)CC(C)CCCCCCCOC(=O)CC/C(C)=C/Cc1c(O)c2c(c(C)c1OC)COC2=O (stereo not shown) [I-50, (E)-2-((10-((6-(4-hydroxy-6-methoxy-7-methyl-3-oxo-1,3-dihydroisobenzofuran-5-yl)-4-methylhex-4-enoyl)oxy)-3-methyldecanoyl)oxy)propane-1,3-diyl dipalmitate]",A (greater than 10% (>10%))
10,CCCCCCCCCCCCCCCC(=O)OCC(COC(=O)CCCCCCCCCCCCCCC)OC(=O)C(C)CCCCCCCC(=O)Oc1c(C/C=C(\C)CCC(=O)OC)c(OC)c(C)c2c1C(=O)OC2 (stereo not shown) [I-45],A (greater than 10% (>10%))
11,CCCC(=O)OCC(COC(=O)CCC)OC(=O)CC(C)CCCCCCCCCCCCOC(=O)CC/C(C)=C/Cc1c(O)c2c(c(C)c1OC)COC2=O (stereo not shown) [I-43],A (greater than 10% (>10%))
12,"CCCCCCCCCCCCCCCC(=O)OCC(COC(=O)CCCCCCCCCCCCCCC)OC(=O)OCCCOC(=O)CC/C(C)=C/Cc1c(O)c2c(c(C)c1OC)COC2=O [I-27, (E)-2-(((3-((6-(4-hydroxy-6-methoxy-7-methyl-3-oxo-1,3-dihydroisobenzofuran-5-yl)-4-methylhex-4-enoyl)oxy)propoxy)carbonyl)oxy)propane-1,3-diyl dipalmitate]",B (between 1% and 10% (1%-10%))
13,CCCCCCCCCCCCCCCC(=O)OCC(COC(=O)CCCCCCCCCCCCCCC)OC(=O)CC(C)CCCCCCCC(C)C(=O)OCOc1c(C/C=C(\C)CCC(=O)OC)c(OC)c(C)c2c1C(=O)OC2 (stereo not shown) [I-44],A (greater than 10% (>10%))
14,"CCCCCCCCCCCCCCCC(=O)OCC(COC(=O)CCCCCCCCCCCCCCC)OC(=O)CCCCCCCCCCC(=O)Oc1c(C/C=C(\C)CCC(=O)OC)c(OC)c(C)c2c1C(=O)OC2 [I-30, (E)-1-(1,3-bis(palmitoyloxy)propan-2-yl) 12-(6-methoxy-5-(6-methoxy-3-methyl-6-oxohex-2-en-1-yl)-7-methyl-3-oxo-1,3-dihydroisobenzofuran-4-yl) dodecanedioate]",A (greater than 10% (>10%))
15,CCCCCCCCCCCCCCCC(=O)OCC(COC(=O)CCCCCCCCCCCCCCC)OC(=O)C(C)CCCCCCCCC(C)C(=O)Oc1cc(C)cc(C)c1C(C)(C)CC(=O)Oc1c(C/C=C(\C)CCC(=O)OC)c(OC)c(C)c2c1C(=O)OC2 (stereo not shown) [I-52],B (between 1% and 10% (1%-10%))
16,CCCCCCCCCCCCCCCC(=O)OCC(COC(=O)CCCCCCCCCCCCCCC)OC(=O)C(C)CCCCCCCCC(C)C(=O)OCOc1c(C/C=C(\C)CCC(=O)OC)c(OC)c(C)c2c1C(=O)OC2 (stereo not shown) [I-41],A (greater than 10% (>10%))
17,CCCCCCCCCCCCCCCC(=O)OCC(COC(=O)CCCCCCCCCCCCCCC)OC(=O)CC(C)CCCC(=O)Oc1c(C/C=C(\C)CCC(=O)OC)c(OC)c(C)c2c1C(=O)OC2 (stereo not shown) [I-53],A (greater than 10% (>10%))
